Like-named read-outs stand apart in the source and are kept apart here.
Tests used:
[1] = test system: mice's ear edema; test: Mice's ear edema (technique of Young et al.); assay type: in vivo; conditions: for decrease of the mice's ear edema: per os, 36 micromole/kg
Experimental: The compounds of the present invention were also tested on the mice's ear edema according to the technique of John M. YOUNG et al., Journal of […], 82, 363-371 (1984). Administrated, per os, at a dose of 36 micromole/kg, the derivatives of the present invention provoke a decrease of the mice's ear edema of from 15 to 50% according to the compounds.

[2] = test system: experimental asthma induced in guinea pigs by antigen aerosols; test: Passive shock in guinea pigs (experimental asthma induced by antigen aerosols); assay type: in vivo; conditions: Cavia porcellus, read-out: Passive shock guinea pig ED50
Source text: to the determination of the passive shock resulting from the study of experimental asthma induced in guinea pigs by antigen aerosols and […]

[3] = Toxicity LD50 in mouse; assay type: in vivo; conditions: in vivo
Source text: (§1) The compounds of the invention and the prior art product fenspiride of the prior art used as reference substance were subjected to various tests described in ARZNEIMITTEL-FORSCHUNG/DRUG RESEARCH 37 (II), 12, 1354-1355 (1987), especially

[4] = test system: histamine-induced bronchoconstriction; test: Armitage test: histamine-induced bronchoconstriction test in guinea pigs; assay type: in vivo; conditions: guinea pig p.o.
Source text: as §1
the histamine-induced bronchoconstriction test in guinea pigs, […]

[5] = molecular target: purified phosphodiesterase; test: In vitro inhibition of purified phosphodiesterase; assay type: biochemical
Source text: as §1
to assays in vitro on the inhibition of purified phosphodiesterase.

[6] = test system: mouse; test: Toxicity LD50 in mouse; assay type: in vivo; conditions: PO
Source text: as §1

[7] = Cavia porcellus, po, dose 1 mg/kg, read-out: Armitage test % protection
[8] = Cavia porcellus, po, read-out: Armitage test % protection
[9] = +calmoduline, read-out: Phosphodiesterase inhibition IC50 +calmoduline (converted)
[10] = basal, read-out: Phosphodiesterase inhibition IC50 basal (converted)

SMILES	ED50 ([2]; guinea pig, PO) [mg/kg]	LD50 ([3]; PO) [mg/kg]	inhibition in vivo at 5 mg/kg [4, 8] [%]	IC50 [5, 9] [µM]	IC50 [5, 10] [µM]	further results
O=c1[nH]c2ccccc2n1CCCN1CCN(C(c2ccccc2)c2ccccc2)CC1 [oxatomide]	–	–	–	–	–	decrease of the mice's ear edema [1]: lower than 15%
O=C1Cc2ccccc2N1CCN1CCC(OC(c2ccccc2)c2ccccc2)CC1 [Example 1, 1-(4-benzhydryloxypiperidinoethyl)oxindole]	–	–	–	–	–	ED50 ([2]; ip): 2.5 mg/kg; ED50 ([2]; po): 5 mg/kg; LD50 ([3]; IP): ~200 mg/kg; inhibition in vivo at 1 mg/kg [4, 7]: 66%; Phosphodiesterase inhibition IC50 basal ([5]; basal): inactif
O=C1c2ccc(F)cc2CN1CCCN1CCC(OC(c2ccccc2)c2ccccc2)CC1 [Example 19, 2-(4-benzhydryloxypiperidinopropyl)-5-fluoro-isoxindole]	10	> 800	68	20	> 100	–
O=C1Cc2cc(F)ccc2N1CCN1CCC(OC(c2ccccc2)c2ccccc2)CC1 [Example 8, 1-(4-benzhydryloxypiperidinoethyl)-5-fluoro-oxindole]	–	–	–	–	> 10	ED50 ([2]; po): 2.5 to 5 mg/kg; inhibition in vivo at 1 mg/kg [4, 7]: 72%
CC(C)C1C(=O)N(CCN2CCC(OC(c3ccccc3)c3ccccc3)CC2)c2ccccc21 (stereo not drawn) [Example 15, 1-(4-benzhydryloxypiperidinoethyl)-3-isopropyloxindole]	5	> 800	50	30	100	–
COc1cc2c(cc1OC)C(=O)N(CCCN1CCC(OC(c3ccccc3)c3ccccc3)CC1)C2 [Example 12, 2-(4-benzhydryloxypiperidinopropyl)-5,6-dimethoxyisoxindole]	20	800	79	20	70	–
O=c1[nH]c2ccccc2n1CCN1CCC(OC(c2ccccc2)c2ccccc2)CC1 [1[(2-oxo-3-benzimidazolinyl-ethyl]-4-benzhydryloxy-piperidine]	–	–	–	–	–	decrease of the mice's ear edema [1]: lower than 15%
O=C1c2ccccc2CN1CCN1CCC(OC(c2ccccc2)c2ccccc2)CC1 [Example 2, 2-(4-benzhydryloxypiperidinoethyl)isoxindole]	2.5 to 5	> 800	–	–	> 100	inhibition in vivo at 1 mg/kg [4, 7]: 36%
O=C1c2cc(F)ccc2CN1CCN1CCC(OC(c2ccccc2)c2ccccc2)CC1 [Example 20, 2-(4-benzhydryloxypiperidinoethyl)-6-fluoro-isoxindole]	40	> 800	43	20	> 100	–
O=C1Cc2ccccc2N1CCN1CCC(OC(c2ccc(F)cc2)c2ccc(F)cc2)CC1 [Example 7, 1-(4-bis-para-fluorobenzhydryloxypiperidinoethyl)oxindole]	–	–	–	–	–	ED50 ([2]; po): 2.5 to 5 mg/kg; Toxicity LD50 [6]: < 800 mg/kg; Armitage test % protection ([4]; dose 1 mg/kg): +50%; Phosphodiesterase inhibition IC50 basal ([5]; basal): inactif
O=C1Cc2ccccc2N1CCCN1CCC(OC(c2ccccc2)c2ccccc2)CC1 [Example 5, 1-(4-benzhydryloxypiperidinopropyl)-oxindole]	–	–	–	100	> 100	inhibition in vivo at 1 mg/kg [4, 7]: 72.1%
O=C1NCC2(CCN(CCc3ccccc3)CC2)O1 [Fenspiride, reference compound]	10	> 800	–	> 100	> 100	ED50 ([2]; guinea pig, IP): 5 mg/kg; activity on mice's ear edema (in words) ([1]; same conditions and same dose (per os, 36 micromole/kg)): no activity; inhibition in vivo at 2.5 mg/kg ([4]; Cavia porcellus, po, dose 2,5 mg/kg, read-out: Armitage test % protection): 69%
O=C1Cc2ccccc2N1CCCN1CCC(C(c2ccc(F)cc2)c2ccc(F)cc2)CC1 [Example 4, 1-(4-bis-para-fluorobenzhydrylpiperidinopropyl)-oxindole]	–	–	–	–	–	ED50 ([2]; guinea pig, IP): 40 mg/kg; LD50 ([3]; IP): ~200 mg/kg; inhibition in vivo at 20 mg/kg ([4]; Cavia porcellus, po, dose 20 mg/kg, read-out: Armitage test % protection): 59.4%
O=C1Cc2ccccc2N1CCN1CCC(C(c2ccc(F)cc2)c2ccc(F)cc2)CC1 [Example 10, 1-(4-bis-para-fluorobenzhydrylpiperidinoethyl)oxindole]	–	< 800	78	100	> 100	–
O=C1c2ccccc2CN1CCCN1CCC(OC(c2ccccc2)c2ccccc2)CC1 [Example 16, 2-(4-benzhydryloxypiperidinopropyl)-isoxindole]	5	> 800	82	30	> 100	–
O=C1c2ccc(F)cc2CN1CCN1CCC(OC(c2ccccc2)c2ccccc2)CC1 [Example 18, 2-(4-benzhydryloxypiperidinoethyl)-5-fluoro-isoxindole]	40	> 800	68	20	100	–
O=C1Cc2cc(F)ccc2N1CCCN1CCC(OC(c2ccccc2)c2ccccc2)CC1 [Example 17, 1-(4-benzhydryloxypiperidinopropyl)-5-fluoro-oxindole]	40	> 800	75	10	> 100	–
O=C1Cc2ccccc2N1CCN1CCC(OC(c2ccc(F)cc2)c2ccc(F)cc2)CC1 [Example 3, 1-(4-bis-para-fluorobenzhydryloxypiperidinoethyl)oxindole]	–	< 800	–	–	–	inhibition in vivo at 1 mg/kg [4, 7]: 47.6%; Phosphodiesterase inhibition IC50 basal ([5]; basal): inactif
CC1(C)C(=O)N(CCN2CCC(OC(c3ccccc3)c3ccccc3)CC2)c2ccccc21 [Example 14, 1-(4-benzhydryloxypiperidinoethyl)-3,3-dimethyloxindole]	> 40	> 800	70	20	30	–
O=C1Cc2ccccc2N1CCN1CCC(SC(c2ccccc2)c2ccccc2)CC1 [Example 9, 1-(4-benzhydrylthiopiperidinoethyl)-oxindole]	–	–	60	–	–	–
O=C1Cc2cccc(F)c2N1CCN1CCC(OC(c2ccccc2)c2ccccc2)CC1 [Example 6, 1-(4-benzhydryloxypiperidinoethyl)-7-fluoro-oxindole]	–	–	–	–	–	inhibition in vivo at 1 mg/kg [4, 7]: 36.6%; Phosphodiesterase inhibition IC50 basal ([5]; basal): inactif
